Values after ≈ are worked out from the molar mass of the structure shown. Where two headings read alike, the source gives them in different places.
Key:
[1] = Estimated PK model parameters for chronic liver disease patients (for Monte-Carlo simulation); parameters: species or system human
Source text: (§1) Based on the PK/PD model in healthy adults as described in (Test Example 1), model parameters in chronic liver disease patients were estimated on the basis of the following assumptions.
PK Parameters (CL, V2/F, Q2/F, V3/F, Q3/F, V4/F, Q4/F, ktr and ka):
Therefore, as PK parameters those from healthy adults were used. As parameters ka and ktr, estimated values under the conditions of postprandial and tablets were used in line with clinical usage.

platelet count [2] = experiment: Estimated PD model parameters for chronic liver disease patients (for Monte-Carlo simulation); parameters: species or system human
Source text: as §1
Based on the pre-defined level of platelet count expected in chronic liver disease patients, the average and range of PLT0 were set to 3×10^4/μL and 2×10^4 to 4.9×10^4/μL, respectively.
It was reported that platelets destruction in chronic liver disease patients was promoted (see Reference 1) and the survival period of platelets was about ⅔ of that of healthy adults (see References 2 and 3). Therefore, kdeg, a parameter representing the elimination rate of platelets, was set to the value which was about 1.5 times of the value of healthy adults, i.e. 0.009 hr^−1. In addition, based on the relationship that the production rate of platelets is equal to the elimination rate of platelets at baseline, kpr, a parameter representing the production rate of platelets, was calculated from the formula: PLT0×kdeg. As a result, kpr was 0.027×10^4/μL/hr which was lower than the value in healthy adults (0.116×10^4/μL/hr). This estimated value matched the previous report that the production rate of platelets was decreased in chronic liver disease patients (see Reference 1).
It was assumed that a parameter km representing the maturation rate of platelets in chronic liver disease patients is similar to that in healthy adults. Therefore, the estimated value in healthy adults was used as km.
When the plasma concentration is sufficiently lower than EC50 (EC50>>C), the drug efficacy of lusutrombopag can be approximated by Emax/EC50. It was assumed based on the clinical data of eltrombopag, a drug having the same efficacy (see References 4 and 5) that Emax/EC50 in this trial was about 3 times of the value of healthy adults. […] Meanwhile, it was assumed that r in the patients was similar to that in healthy adults. Therefore, the value in healthy adults was used as r.
A reduction in the production rate of platelets with an increase in platelets, i.e. the negative feedback phenomenon, is represented by the formula (PLT0/PLT)^γ. […] Therefore, the negative feedback phenomenon was not taken into account in the present simulation.
As inter-individual variability of the respective PD parameters, the values in healthy adults were used.
The intra-individual variability of plasma concentration was not taken into account in the present simulation. As the intra-individual variability of a platelet count, the value in healthy adults was used.

platelet count [3] = experiment: PD model from phase 1 trial in healthy male adults (profile of platelet count); assay type: in vivo, human; conditions: for EC50: Homo sapiens, Platelet, read-out: EC50 (sigmoid Emax model), mean
Source text: Using the plasma concentration of the drug and the platelet count data of 54 cases obtained in phase 1 trial carried out in Japan to healthy male adults, a PK/PD model was constructed that can describe pharmacokinetics and a profile of a platelet count. The PK model describing pharmacokinetics was a three-compartment model including three compartments in the absorption process in order to explain the delay in absorption. The PD model describing the relation between the plasma concentration and the profile of platelets counts was a model including five compartments in order to explain the maturation process of platelets. […] We assumed that the distributions of respective model parameters and the distributions of the residual errors of the models follow a log-normal distribution. Parameters were estimated by using the first order conditional estimation method with interaction in a software NONMEM (version VI, level 2.0).

## CCCCCCO[C@@H](C)c1cccc(-c2csc(NC(=O)c3cc(Cl)c(/C=C(\C)C(=O)O)c(Cl)c3)n2)c1OC [lusutrombopag, (E)-3-[2,6-dichloro-4-[4-[3-[(S)-1-hexyloxyethyl]-2-methoxyphenyl]-thiazol-2-ylcarbamoyl]-phenyl]-2-methylacrylic acid]
[1]
  Q3/F, mean: 0.946 L/h
  Q4/F, mean: 0.0262 L/h
  V3/F, mean: 6.28 L
  V4/F, mean: 2.71 L
[1]; postprandial and tablets
  ka, mean: 0.854 h⁻¹
  ktr, mean: 1.38 h⁻¹
[1]; value of healthy adults used
  CL, mean: 0.776 L/h
[1]; × (1 + (BW − 63) × 0.0172)
  V2/F, mean: 15.9 L
Platelet count [2]; about 1.5 times of healthy adults
  kdeg, mean: 2.5e-06 s⁻¹
Platelet count [2]; set by assumption
  EC50, mean: 0.18 µg/mL (≈ 0.304 µM)
  Emax, mean: 29.3
Platelet count [2]; value of healthy adults
  km, mean: 0.0394 h⁻¹
  r, mean: 2.03
Platelet count [3]
  Emax (sigmoid Emax model), mean: 3.52
  kdeg (elimination rate constant from the platelet compartment), mean: 1.61e-06 s⁻¹
  km (inter-PD-compartmental transfer rate constant), mean: 0.0394 h⁻¹
  r (sigmoid Emax model), mean: 2.03
Platelet count [3]; 50 mg/dose
  EC50: 0.0216 µg/mL (≈ 0.0365 µM)
Platelet count [3]; <50 mg/dose
  EC50: 0.0647 µg/mL (≈ 0.109 µM)

— patent publication US10085973B2, “Pharmaceutical composition containing a compound having a thrombopoietin receptor agonistic activity” (Shionogi & Co., Ltd., priority 2012, dated 2018)
